This note sets out measurements from patent US20250145606A1 (Arcus Biosciences, Inc., priority 2023, published 2025).

One assay deals with c-Kit (Homo sapiens (Human), UniProt P10721). The assay can be described thus: Inhibition of c-Kit kinase activity (HTRF KinEASE-TK). Format: biochemical. As to conditions: biochemical, HTRF KinEASE-TK. The method, boiled down:
(§1)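 Recombinant kinases (2 nM CSF1R and c-Kit, 10 nM PDGFRα/β, 2× working) preincubated 1 h with compound in 50 mM HEPES pH 7.4, 5 mM MgCl2 (c-Kit) or 10 mM (others), 2 mM MnCl2; 2× ATP: c-Kit 16 μM, PDGFRα 1 μM, PDGFRβ 40 μM, CSF1R 20 μM. 120 min reaction at rt; TR-FRET 665/620 nm; IC50 by 4-parameter fit.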
For orientation: TR-FRET usually uses a lanthanide donor and a delayed reading to cut background.

The target in a further assay is CSF1R (Homo sapiens (Human), UniProt P07333). In words: Inhibition of CSF1R kinase activity (HTRF KinEASE-TK). As to conditions: biochemical, HTRF KinEASE-TK. The essentials:
as §1

The target in another assay is PDGFRβ (Homo sapiens (Human), UniProt P09619). In words: Inhibition of PDGFRβ kinase activity (HTRF KinEASE-TK). As to conditions: biochemical, HTRF KinEASE-TK. The essentials:
as §1

For a further assay, the target named is FLT3 (Homo sapiens (Human), UniProt P36888). In words: Inhibition of FLT3 kinase activity (HTRF KinEASE-TK). It counts as biochemical. To be noted: biochemical, HTRF KinEASE-TK. The essentials: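 FLT3 tyrosine kinase activity was measured with the HTRF KinEASE-TK kit by following phosphorylation of a biotinylated TK peptide. After the 45 min reaction, 10 μL of detection mix was added: 0.2 μM (2×) Streptavidin-XL665 and 2 μM (2×) TK-Antibody-Cryptate in detection buffer. After 60 min, TR-FRET was read on an Envision as the 665 nm/620 nm emission ratio with 320 nm excitation.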

For the next assay, the target named is PDGFRα (Homo sapiens (Human), UniProt P16234). In words: Inhibition of PDGFRα kinase activity (HTRF KinEASE-TK). To be noted: biochemical, HTRF KinEASE-TK. The essentials:
as §1

Assay [1] relates to Phospho-KIT (Y703) in M07e cells. The assay can be described thus: Phospho-KIT (Y703) cellular assay in M07e cells. Format: cell-based. To be noted: M-07e; Phospho-KIT (Y703), M07e cells; read-out: M07e Cell IC50. The essentials: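 Serum-starved M07e cells preincubated 50 min at 37° C with 11-point half-log compound titration, then stimulated 10 min with SCF at 90.9 ng/mL final. Fixed, permeabilized cells stained for phospho-KIT Y703 and read by flow cytometry (live-gated geometric mean); IC50 by 4-parameter fit normalized to DMSO and positive control.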

pIC50: −log10 of the molar value.

Chain of PDGFRα (P16234 24-1089): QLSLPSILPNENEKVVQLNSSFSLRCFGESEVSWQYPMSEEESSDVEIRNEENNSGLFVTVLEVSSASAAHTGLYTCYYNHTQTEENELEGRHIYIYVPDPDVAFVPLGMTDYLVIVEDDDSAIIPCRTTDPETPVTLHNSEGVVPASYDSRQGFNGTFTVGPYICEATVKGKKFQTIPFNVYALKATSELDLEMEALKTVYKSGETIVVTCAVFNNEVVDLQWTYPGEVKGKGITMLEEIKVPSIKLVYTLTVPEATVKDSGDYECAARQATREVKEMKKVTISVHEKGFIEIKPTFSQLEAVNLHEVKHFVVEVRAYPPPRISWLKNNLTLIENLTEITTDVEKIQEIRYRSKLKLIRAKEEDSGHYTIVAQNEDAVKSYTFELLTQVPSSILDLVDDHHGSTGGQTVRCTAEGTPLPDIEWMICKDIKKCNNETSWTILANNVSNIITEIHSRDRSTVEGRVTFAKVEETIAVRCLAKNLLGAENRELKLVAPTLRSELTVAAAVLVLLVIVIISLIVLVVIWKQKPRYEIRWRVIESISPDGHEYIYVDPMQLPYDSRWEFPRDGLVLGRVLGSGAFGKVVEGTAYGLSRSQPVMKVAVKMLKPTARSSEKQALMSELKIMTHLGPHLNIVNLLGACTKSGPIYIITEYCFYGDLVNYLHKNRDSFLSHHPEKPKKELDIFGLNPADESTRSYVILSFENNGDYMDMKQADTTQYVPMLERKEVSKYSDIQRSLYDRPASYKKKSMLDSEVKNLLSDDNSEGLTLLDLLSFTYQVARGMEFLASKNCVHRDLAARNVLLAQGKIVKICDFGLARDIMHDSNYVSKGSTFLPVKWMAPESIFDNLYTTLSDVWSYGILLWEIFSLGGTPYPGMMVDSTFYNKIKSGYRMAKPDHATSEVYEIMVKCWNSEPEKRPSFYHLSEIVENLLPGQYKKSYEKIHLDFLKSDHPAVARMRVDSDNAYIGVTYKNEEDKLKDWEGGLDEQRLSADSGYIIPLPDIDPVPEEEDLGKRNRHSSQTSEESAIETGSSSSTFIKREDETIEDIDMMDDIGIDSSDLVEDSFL
Chain of PDGFRβ (P09619 33-1106): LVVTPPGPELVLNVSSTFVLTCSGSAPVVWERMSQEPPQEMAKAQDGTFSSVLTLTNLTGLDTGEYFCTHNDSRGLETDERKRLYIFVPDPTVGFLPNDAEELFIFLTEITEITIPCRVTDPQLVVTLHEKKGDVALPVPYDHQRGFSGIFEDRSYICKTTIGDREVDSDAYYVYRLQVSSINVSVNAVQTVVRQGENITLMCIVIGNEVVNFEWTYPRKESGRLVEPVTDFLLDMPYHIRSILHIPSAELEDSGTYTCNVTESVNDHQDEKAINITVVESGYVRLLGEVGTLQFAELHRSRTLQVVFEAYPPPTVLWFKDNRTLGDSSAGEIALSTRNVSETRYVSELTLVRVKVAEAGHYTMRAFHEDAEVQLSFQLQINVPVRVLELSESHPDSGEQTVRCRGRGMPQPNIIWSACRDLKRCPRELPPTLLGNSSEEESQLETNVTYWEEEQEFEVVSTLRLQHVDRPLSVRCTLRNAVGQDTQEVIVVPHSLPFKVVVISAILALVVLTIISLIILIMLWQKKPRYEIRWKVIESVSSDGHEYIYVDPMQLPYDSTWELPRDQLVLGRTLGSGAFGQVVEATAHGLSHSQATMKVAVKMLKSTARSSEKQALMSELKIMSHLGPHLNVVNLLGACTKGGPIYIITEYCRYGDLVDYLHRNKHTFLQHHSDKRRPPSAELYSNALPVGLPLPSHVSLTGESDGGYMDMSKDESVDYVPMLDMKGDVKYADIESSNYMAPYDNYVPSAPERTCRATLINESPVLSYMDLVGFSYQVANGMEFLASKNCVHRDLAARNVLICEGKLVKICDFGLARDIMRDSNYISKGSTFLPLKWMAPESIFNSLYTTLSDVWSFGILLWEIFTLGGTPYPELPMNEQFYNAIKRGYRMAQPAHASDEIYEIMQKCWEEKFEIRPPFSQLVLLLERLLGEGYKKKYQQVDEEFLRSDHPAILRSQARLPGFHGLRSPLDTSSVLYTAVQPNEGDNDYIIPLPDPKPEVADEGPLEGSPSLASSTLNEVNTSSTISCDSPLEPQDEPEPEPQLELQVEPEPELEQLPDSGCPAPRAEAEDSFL
Chain of FLT3 (P36888 27-993): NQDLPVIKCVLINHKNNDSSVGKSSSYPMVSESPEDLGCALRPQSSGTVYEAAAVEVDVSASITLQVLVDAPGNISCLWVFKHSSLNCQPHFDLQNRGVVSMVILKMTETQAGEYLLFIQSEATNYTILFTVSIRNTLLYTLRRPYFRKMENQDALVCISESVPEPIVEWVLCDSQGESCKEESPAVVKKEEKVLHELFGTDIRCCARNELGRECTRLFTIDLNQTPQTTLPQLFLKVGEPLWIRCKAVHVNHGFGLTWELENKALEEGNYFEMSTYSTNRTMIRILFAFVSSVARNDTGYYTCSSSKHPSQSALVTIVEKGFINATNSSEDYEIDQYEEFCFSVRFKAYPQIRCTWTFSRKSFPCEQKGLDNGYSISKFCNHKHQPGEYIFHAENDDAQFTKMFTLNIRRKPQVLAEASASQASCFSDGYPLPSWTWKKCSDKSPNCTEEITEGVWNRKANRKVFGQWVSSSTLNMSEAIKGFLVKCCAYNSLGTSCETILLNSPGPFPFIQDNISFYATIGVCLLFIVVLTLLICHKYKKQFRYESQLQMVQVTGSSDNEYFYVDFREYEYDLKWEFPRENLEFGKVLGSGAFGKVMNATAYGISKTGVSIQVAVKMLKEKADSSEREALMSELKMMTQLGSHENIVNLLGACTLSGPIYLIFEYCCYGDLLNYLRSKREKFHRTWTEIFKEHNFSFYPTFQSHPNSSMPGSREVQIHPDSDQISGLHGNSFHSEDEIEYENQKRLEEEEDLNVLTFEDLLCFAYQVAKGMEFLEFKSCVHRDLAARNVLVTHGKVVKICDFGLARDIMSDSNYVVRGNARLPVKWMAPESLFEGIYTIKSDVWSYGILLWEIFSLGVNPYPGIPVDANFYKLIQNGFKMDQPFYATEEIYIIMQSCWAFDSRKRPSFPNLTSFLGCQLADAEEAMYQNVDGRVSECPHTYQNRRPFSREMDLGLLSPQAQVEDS
Chain of CSF1R (P07333 20-972): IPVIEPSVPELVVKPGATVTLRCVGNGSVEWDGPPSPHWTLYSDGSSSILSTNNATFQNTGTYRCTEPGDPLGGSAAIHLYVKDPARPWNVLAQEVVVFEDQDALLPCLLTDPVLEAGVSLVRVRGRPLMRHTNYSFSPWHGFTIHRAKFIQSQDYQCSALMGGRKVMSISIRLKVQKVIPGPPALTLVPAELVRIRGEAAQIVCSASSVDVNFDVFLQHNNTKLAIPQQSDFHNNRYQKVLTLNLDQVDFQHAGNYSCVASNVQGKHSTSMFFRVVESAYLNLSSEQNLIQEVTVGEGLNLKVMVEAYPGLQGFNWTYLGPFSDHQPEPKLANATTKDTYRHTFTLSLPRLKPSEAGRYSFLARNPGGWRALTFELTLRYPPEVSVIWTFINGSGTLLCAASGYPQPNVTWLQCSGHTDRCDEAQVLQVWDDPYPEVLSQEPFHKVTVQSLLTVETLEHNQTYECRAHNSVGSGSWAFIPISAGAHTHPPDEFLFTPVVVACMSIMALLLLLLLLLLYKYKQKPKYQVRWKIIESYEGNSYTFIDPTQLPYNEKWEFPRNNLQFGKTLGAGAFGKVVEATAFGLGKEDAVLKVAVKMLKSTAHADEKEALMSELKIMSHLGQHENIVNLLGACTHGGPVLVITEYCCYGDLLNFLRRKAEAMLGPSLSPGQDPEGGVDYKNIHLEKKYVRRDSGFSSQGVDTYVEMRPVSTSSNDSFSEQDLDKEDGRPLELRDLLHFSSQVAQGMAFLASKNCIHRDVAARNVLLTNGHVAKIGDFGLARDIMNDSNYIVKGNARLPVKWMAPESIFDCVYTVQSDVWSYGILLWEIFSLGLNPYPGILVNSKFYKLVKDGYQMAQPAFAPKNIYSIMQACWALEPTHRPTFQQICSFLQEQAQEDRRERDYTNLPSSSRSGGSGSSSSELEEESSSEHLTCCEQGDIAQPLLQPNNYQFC
Chain of c-Kit (P10721 26-976): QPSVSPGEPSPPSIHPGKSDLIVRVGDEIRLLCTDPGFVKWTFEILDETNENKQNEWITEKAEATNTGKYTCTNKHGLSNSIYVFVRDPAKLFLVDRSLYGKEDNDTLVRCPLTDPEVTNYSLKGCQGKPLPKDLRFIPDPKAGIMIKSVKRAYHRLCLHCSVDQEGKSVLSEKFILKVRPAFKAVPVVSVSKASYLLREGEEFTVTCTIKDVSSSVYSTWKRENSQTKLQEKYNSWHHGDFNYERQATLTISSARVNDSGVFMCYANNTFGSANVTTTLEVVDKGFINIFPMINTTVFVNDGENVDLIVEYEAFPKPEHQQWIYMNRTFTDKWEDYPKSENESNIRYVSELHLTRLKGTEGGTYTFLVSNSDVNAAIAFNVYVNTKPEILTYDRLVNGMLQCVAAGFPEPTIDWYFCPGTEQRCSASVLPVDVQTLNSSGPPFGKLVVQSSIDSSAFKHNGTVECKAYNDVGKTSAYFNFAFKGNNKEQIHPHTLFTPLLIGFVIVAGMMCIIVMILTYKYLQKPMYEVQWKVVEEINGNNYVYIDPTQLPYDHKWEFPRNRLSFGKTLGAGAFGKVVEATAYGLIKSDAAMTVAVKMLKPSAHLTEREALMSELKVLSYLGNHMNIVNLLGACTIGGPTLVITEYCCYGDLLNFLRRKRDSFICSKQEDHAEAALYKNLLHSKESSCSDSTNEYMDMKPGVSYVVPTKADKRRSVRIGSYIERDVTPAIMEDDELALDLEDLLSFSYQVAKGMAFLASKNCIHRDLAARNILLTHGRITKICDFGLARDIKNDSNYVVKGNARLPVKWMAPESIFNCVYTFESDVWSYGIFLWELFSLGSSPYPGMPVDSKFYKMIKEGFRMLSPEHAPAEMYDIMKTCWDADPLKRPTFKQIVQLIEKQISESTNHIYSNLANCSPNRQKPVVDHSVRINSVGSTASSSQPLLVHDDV

With `Cc1cc(F)c(C(=O)Nc2ccc3c(n2)COCC3)cc1NC(=O)c1cnc(N)s1` [Example 114, 2-Amino-N-[5-(6,8-dihydro-5H-pyrano[3,4-b]pyridin-2-ylcarbamoyl)-4-fluoro-2-methylphenyl]-1,3-thiazole-5-carboxamide], the pIC50 (usually the negative decadic logarithm of the IC50, by convention in mol/L) at c-Kit was greater than 7.00; against CSF1R it was 6.00 to 7.00; at PDGFRβ, 6.00 to 7.00; against FLT3, less than 6.00; against PDGFRα it was 6.00 to 7.00; in assay [1] it was greater than 7.00.
Take `Cc1cc(F)c(C(=O)Nc2ccc3c(n2)CCOC3)cc1NC(=O)c1cnc(N)s1` [Example 115, 2-Amino-N-[5-(7,8-dihydro-5H-pyrano[4,3-b]pyridin-2-ylcarbamoyl)-4-fluoro-2-methylphenyl]-1,3-thiazole-5-carboxamide]: the pIC50 was greater than 7.00 on c-Kit; 6.00 to 7.00 at CSF1R; less than 6.00 on PDGFRβ; less than 6.00 on FLT3; less than 6.00 on PDGFRα; greater than 7.00 in assay [1].
`Cc1cc(F)c(C(=O)Nc2ccc(O[C@H]3CCOC3)cn2)cc1NC(=O)c1cnc(N)s1` [Example 117, 2-Amino-N-[4-fluoro-2-methyl-5-[[5-[(3S)-oxolan-3-yl]oxypyridin-2-yl]carbamoyl]phenyl]-1,3-thiazole-5-carboxamide]: the negative logarithm of the IC50 (pIC50) at c-Kit is greater than 7.00; on CSF1R, less than 6.00; against PDGFRβ it was less than 6.00; at FLT3 it was less than 6.00; against PDGFRα it was less than 6.00; in assay [1], greater than 7.00.
On to `Cc1cc(F)c(C(=O)Nc2ccc(C3(C#N)CC3)cn2)cc1NC(=O)c1cnc(N)s1` [Example 118, 2-Amino-N-[5-[[5-(1-cyanocyclopropyl)pyridin-2-yl]carbamoyl]-4-fluoro-2-methylphenyl]-1,3-thiazole-5-carboxamide], for which the negative logarithm of the IC50 (pIC50) is greater than 7.00 against c-Kit; 6.00 to 7.00 on CSF1R; 6.00 to 7.00 on PDGFRβ; less than 6.00 against FLT3; less than 6.00 against PDGFRα; greater than 7.00 in assay [1].
Consider `Cc1cc(F)c(C(=O)NCC(F)(F)F)cc1NC(=O)c1cnc(N)s1` [Example 122, 2-Amino-N-[4-fluoro-2-methyl-5-(2,2,2-trifluoroethylcarbamoyl)phenyl]-1,3-thiazole-5-carboxamide], for which the pIC50 was greater than 7.00 at c-Kit; less than 6.00 against CSF1R; less than 6.00 at PDGFRβ; less than 6.00 at FLT3; less than 6.00 against PDGFRα; greater than 7.00 in assay [1].
With `CO[C@H]1C[C@@H](NC(=O)c2cc(NC(=O)c3cnc(N)s3)c(C)cc2F)C1` [Example 123, 2-Amino-N-[4-fluoro-5-[(3-methoxycyclobutyl)carbamoyl]-2-methylphenyl]-1,3-thiazole-5-carboxamide], the pIC50 is greater than 7.00 against c-Kit; less than 6.00 at CSF1R; less than 6.00 on PDGFRβ; less than 6.00 against FLT3; less than 6.00 against PDGFRα; greater than 7.00 in assay [1].
For `Cc1cc(F)c(C(=O)N[C@H]2C[C@@H](F)C2)cc1NC(=O)c1cnc(N)s1` [Example 124, 2-Amino-N-[4-fluoro-5-[(3-fluorocyclobutyl)carbamoyl]-2-methylphenyl]-1,3-thiazole-5-carboxamide], the pIC50 against c-Kit is greater than 7.00; at CSF1R it was less than 6.00; at PDGFRβ, less than 6.00; on FLT3 it was less than 6.00; against PDGFRα it was less than 6.00; in assay [1], greater than 7.00.
Turning to `Cc1cc(F)c(C(=O)Nc2ccc(OC3CC3)cn2)cc1NC(=O)c1cnc(N)s1` [Example 129, 2-Amino-N-[5-[(5-cyclopropyloxypyridin-2-yl)carbamoyl]-4-fluoro-2-methylphenyl]-1,3-thiazole-5-carboxamide], the pIC50 is greater than 7.00 against c-Kit; 6.00 to 7.00 against CSF1R; 6.00 to 7.00 on PDGFRβ; less than 6.00 at FLT3; less than 6.00 against PDGFRα; greater than 7.00 in assay [1].
`Cc1cc(F)c(C(=O)Nc2ccc(C3CC3)cn2)cc1NC(=O)c1cnc(N)s1` [Example 130, 2-Amino-N-[5-[(5-cyclopropylpyridin-2-yl)carbamoyl]-4-fluoro-2-methylphenyl]-1,3-thiazole-5-carboxamide]: the pIC50 against c-Kit was greater than 7.00; at CSF1R, 6.00 to 7.00; against PDGFRβ, 6.00 to 7.00; against FLT3, less than 6.00; against PDGFRα it was 6.00 to 7.00; in assay [1], greater than 7.00.
In the case of `COc1ccc(NC(=O)c2cc(NC(=O)c3cnc(N)s3)c(C)cc2F)nc1` [Example 131, 2-Amino-N-[4-fluoro-5-[(5-methoxypyridin-2-yl)carbamoyl]-2-methylphenyl]-1,3-thiazole-5-carboxamide], the pIC50 was greater than 7.00 against c-Kit; less than 6.00 at CSF1R; less than 6.00 against PDGFRβ; less than 6.00 against FLT3; less than 6.00 against PDGFRα; greater than 7.00 in assay [1].
Regarding `Cc1cc(F)c(C(=O)Nc2ccccn2)cc1NC(=O)c1cnc(N)s1` [Example 132, 2-Amino-N-[4-fluoro-2-methyl-5-(pyridin-2-ylcarbamoyl)phenyl]-1,3-thiazole-5-carboxamide], the pIC50 on c-Kit is greater than 7.00; against CSF1R, less than 6.00; at PDGFRβ, less than 6.00; against FLT3, less than 6.00; on PDGFRα, less than 6.00; in assay [1], greater than 7.00.
Turning to `Cc1ccc(NC(=O)c2cc(NC(=O)c3cnc(N)s3)c(C)cc2F)nc1` [Example 133, 2-Amino-N-[4-fluoro-2-methyl-5-[(5-methylpyridin-2-yl)carbamoyl]phenyl]-1,3-thiazole-5-carboxamide], the pIC50 on c-Kit was greater than 7.00; on CSF1R, less than 6.00; against PDGFRβ, less than 6.00; against FLT3 it was less than 6.00; at PDGFRα, less than 6.00; in assay [1] it was greater than 7.00.
For the molecule `Cc1cc(F)c(C(=O)Nc2ccc(OC3CCC3)cn2)cc1NC(=O)c1cnc(N)s1` [Example 134, 2-Amino-N-[5-[(5-cyclobutyloxypyridin-2-yl)carbamoyl]-4-fluoro-2-methylphenyl]-1,3-thiazole-5-carboxamide], the pIC50 against c-Kit was greater than 7.00; against CSF1R it was 6.00 to 7.00; on PDGFRβ it was greater than 7.00; against FLT3, less than 6.00; against PDGFRα it was 6.00 to 7.00; in assay [1], greater than 7.00.
For `Cc1cc(F)c(C(=O)Nc2ccc(C3CC3)nn2)cc1NC(=O)c1cnc(N)s1` [Example 135, 2-Amino-N-[5-[(6-cyclopropylpyridazin-3-yl)carbamoyl]-4-fluoro-2-methylphenyl]-1,3-thiazole-5-carboxamide], the pIC50 was greater than 7.00 at c-Kit; 6.00 to 7.00 against CSF1R; greater than 7.00 at PDGFRβ; less than 6.00 at FLT3; 6.00 to 7.00 against PDGFRα; greater than 7.00 in assay [1].
Consider `Cc1cc(F)c(C(=O)Nc2ccn(C3CC(F)(F)C3)n2)cc1NC(=O)c1cnc(N)s1` [Example 139, 2-Amino-N-[5-[[1-(3,3-difluorocyclobutyl)pyrazol-3-yl]carbamoyl]-4-fluoro-2-methylphenyl]-1,3-thiazole-5-carboxamide], for which the pIC50 against c-Kit was greater than 7.00; at CSF1R, less than 6.00; on PDGFRβ it was 6.00 to 7.00; against FLT3, less than 6.00; at PDGFRα, 6.00 to 7.00; in assay [1], greater than 7.00.
